Experimental data from ChEMBL document CHEMBL1156746, “New small molecule inhibitors of hepatitis C virus” (Bioorg Med Chem Lett, 2009).

Columns and labels:
Hepatitis C virus [1] = assay: Antiviral activity against HCV2a J6/JFH1 infected in Huh7-5 cells assessed as inhibition of core protein dimerization by RT PCR; type: functional, organism-based, Hepacivirus hominis, subtype 2a J6/JFH1
[2] = Cytotoxicity against human Huh7.5 cells; type: cell-based, Huh-7
Hepatitis C virus [3] = assay: Antiviral activity against HCV2a J6/JFH1 infected in Huh7-5 cells at late T2 stage assessed as inhibition of core protein dimerization by RT PCR; type: functional, organism-based, Hepacivirus hominis; details: subtype 2a J6/JFH1, Huh7.5
Hepatitis C virus [4] = assay: Antiviral activity against HCV2a J6/JFH1 infected in Huh7-5 cells at early T1 stage assessed as inhibition of core protein dimerization by RT PCR; type: functional, organism-based, Hepacivirus hominis; details: subtype 2a J6/JFH1, Huh7.5
[5] = Hepatitis C virus, subtype 2a J6/JFH1, Huh7.5, read-out: IC50

Row | Structure (SMILES) | IC50 (Hepatitis C virus [1]; [5]) [µM] | EC50 (Hepatitis C virus [3]) [µM] | EC50 (Hepatitis C virus [4]) [µM] | CC50 ([2]; Huh7.5 cells) [µM] | IC50 (Hepatitis C virus [1]; huh7-5) | CC50 ([2]; huh-7) [µM]
1 | COc1ccc2c(O[C@@H]3C[C@H]4C(=O)N[C@]5(C(=O)O)C[C@H]5/C=C\CCCCC[C@H](NC(=O)OC5CCCC5)C(=O)N4C3)cc(-c3csc(NC(C)C)n3)nc2c1 [CILUPREVIR] | – | 0.071 | 0.072 | – | Not Active | 5.3
2 | COC(=O)C1=C(C(=O)OC)C2N(C)c3ccc(OC)cc3[C@@]23C[C@@H](C(=O)OC)N(C(=O)CC(C)C)C3=N1 (mixture of isomers) | 9.3 | 22.2 | 14.8 | > 320 | – | –
3 | CC#CCN1c2ccc(OC)cc2[C@]23CCC(=O)N(CCOC)C2=NC(C(=O)OC)=C(C(=O)OC)C13 (mixture of isomers) | 2 | 0.7 | 4.9 | > 320 | – | –

Further lines, with some results ahead:

Row | IC50 (Hepatitis C virus [1]; [5]) [µM] | EC50 (Hepatitis C virus [3]) [µM] | EC50 (Hepatitis C virus [4]) [µM] | Structure (SMILES) | CC50 ([2]; Huh7.5 cells) [µM] | IC50 (Hepatitis C virus [1]; huh7-5) | CC50 ([2]; huh-7) [µM]
4 | 1.4 | 3.2 | 2.3 | C=CCN1c2ccc(OC)cc2[C@]23CCC(=O)N(Cc4ccccc4)C2=NC(C(=O)OC)=C(C(=O)OC)C13 (mixture of isomers) | 127 | – | –
5 | 2 | 3 | 3.8 | C=CCN1c2ccc(OC)cc2[C@]23CCC(=O)N(Cc4cc(OC)c(OC)c(OC)c4)C2=NC(C(=O)OC)=C(C(=O)OC)C13 (mixture of isomers) | 5.3 | – | –
